Data from ChEMBL document CHEMBL1201862, “PubChem BioAssay data set” (2004).
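96-well plates; 48 h exposure; 5 concentrations. Endpoints by linear interpolation between flanking doses. Not reached: highest tested concentration assigned. GI50 is the concentration that inhibits growth by half.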 Activity calls are given as the source filed them. No stated cut-off is given here; in the data, active = GI50 up to about 1.1 µM and inactive = higher.

Assays:
Assay in all cases: NCI anticancer screen, dose series, 48 h
SK-MEL-5 = tested on: SK-MEL-5
786-0 = tested on: 786-0
LOX IMVI = tested on: LOX IMVI
NCI/ADR-RES = tested on: NCI/ADR-RES
SK-OV-3 = tested on: SK-OV-3
OVCAR-8 = tested on: OVCAR-8
EKVX = tested on: EKVX
HOP-92 = tested on: HOP-92
MDA-N = tested on: MDA-N
SW-620 = tested on: SW-620
RPMI-8226 = tested on: RPMI-8226
A498 = tested on: A498
MDA-MB-435 = tested on: MDA-MB-435
OVCAR-5 = tested on: OVCAR-5
SNB-19 = tested on: SNB-19
HOP-62 = tested on: HOP-62
HCT-116 = tested on: HCT-116
DU-145 = tested on: DU-145
SNB-75 = tested on: SNB-75
KM12 = tested on: KM12

**Q.** Which GI50 (SK-MEL-5) does the source give for `OC(Cc1cc(CC(O)(C(F)(F)F)C(F)(F)F)nc(CC(O)(C(F)(F)F)C(F)(F)F)c1)(C(F)(F)F)C(F)(F)F` here?
**A.** Its GI50 is 1.51 µM (inactive).

**Q.** And the GI50 (786-0)?
**A.** The GI50 was 1.35 µM (inactive).

**Q.** And the GI50 (LOX IMVI)?
**A.** The GI50 was 0.39 µM (active).

**Q.** And the GI50 (NCI/ADR-RES)?
**A.** Its GI50 is 1.66 µM (inactive).

**Q.** What about the GI50 (SK-OV-3) of the same compound?
**A.** The GI50 was 3.96 µM (inactive).

**Q.** And the GI50 (OVCAR-8)?
**A.** The GI50 was 1.33 µM (inactive).

**Q.** And the GI50 (EKVX)?
**A.** The GI50 was 2.07 µM (inactive).

**Q.** And the GI50 (HOP-92)?
**A.** Its GI50 is 0.541 µM (active).

**Q.** And the GI50 (MDA-N)?
**A.** Its GI50 is 1.45 µM (inactive).

**Q.** And the GI50 (SW-620)?
**A.** Its GI50 is 0.574 µM (active).

**Q.** And the GI50 (RPMI-8226)?
**A.** The GI50 was > 10 µM (inactive).

**Q.** And the GI50 (A498)?
**A.** The GI50 was 1.32 µM (inactive).

**Q.** What about the GI50 (MDA-MB-435) of the same compound?
**A.** Its GI50 is 2.39 µM (inactive).

**Q.** What about the GI50 (OVCAR-5) of the same compound?
**A.** The GI50 was 3.43 µM (inactive).

**Q.** And the GI50 (SNB-19)?
**A.** Its GI50 is 0.726 µM (active).

**Q.** What about the GI50 (HOP-62) of the same compound?
**A.** The GI50 was 1.73 µM (inactive).

**Q.** And the GI50 (HCT-116)?
**A.** Its GI50 is 0.869 µM (active).

**Q.** And the GI50 (DU-145)?
**A.** Its GI50 is 1.91 µM (inactive).

**Q.** And the GI50 (SNB-75)?
**A.** Its GI50 is 1.92 µM (inactive).

**Q.** What about the GI50 (KM12) of the same compound?
**A.** The GI50 was 0.482 µM (active).

**Q.** With `CCOP(=O)(OCC)/C(C#N)=C(\C)c1ccco1` as the compound, how does the GI50 (SK-MEL-5) read?
**A.** The GI50 was > 10 µM (inactive).

**Q.** And the GI50 (786-0)?
**A.** The GI50 was > 10 µM (inactive).

**Q.** And the GI50 (LOX IMVI)?
**A.** The GI50 was > 10 µM (inactive).

**Q.** What about the GI50 (NCI/ADR-RES) of the same compound?
**A.** Its GI50 is > 10 µM (inactive).

**Q.** What about the GI50 (SK-OV-3) of the same compound?
**A.** Its GI50 is > 10 µM (inactive).

**Q.** What about the GI50 (OVCAR-8) of the same compound?
**A.** Its GI50 is > 10 µM (inactive).

**Q.** And the GI50 (EKVX)?
**A.** Its GI50 is > 10 µM (inactive).

**Q.** What about the GI50 (HOP-92) of the same compound?
**A.** The GI50 was > 10 µM (inactive).

**Q.** And the GI50 (MDA-N)?
**A.** The GI50 was > 10 µM (inactive).

**Q.** And the GI50 (SW-620)?
**A.** Its GI50 is > 10 µM (inactive).

**Q.** What about the GI50 (RPMI-8226) of the same compound?
**A.** The GI50 was > 10 µM (inactive).

**Q.** And the GI50 (A498)?
**A.** Its GI50 is > 10 µM (inactive).

**Q.** And the GI50 (MDA-MB-435)?
**A.** Its GI50 is > 10 µM (inactive).

**Q.** And the GI50 (OVCAR-5)?
**A.** The GI50 was > 10 µM (inactive).

**Q.** What about the GI50 (SNB-19) of the same compound?
**A.** The GI50 was > 10 µM (inactive).

**Q.** What about the GI50 (HOP-62) of the same compound?
**A.** The GI50 was > 10 µM (inactive).

**Q.** What about the GI50 (HCT-116) of the same compound?
**A.** Its GI50 is > 10 µM (inactive).

**Q.** And the GI50 (DU-145)?
**A.** Its GI50 is > 10 µM (inactive).

**Q.** And the GI50 (SNB-75)?
**A.** The GI50 was > 10 µM (inactive).

**Q.** And the GI50 (KM12)?
**A.** Its GI50 is > 10 µM (inactive).

**Q.** Which GI50 (SK-MEL-5) does the source give for `CN(C)c1ccc(/C=C(\NC(=O)c2ccccc2)C(=O)NC(CCC(=O)O)C(=O)O)cc1` (stereo not given) here?
**A.** Its GI50 is > 100 µM (inactive).

**Q.** And the GI50 (786-0)?
**A.** Its GI50 is > 100 µM (inactive).

**Q.** And the GI50 (LOX IMVI)?
**A.** Its GI50 is > 100 µM (inactive).

**Q.** What about the GI50 (NCI/ADR-RES) of the same compound?
**A.** Its GI50 is > 100 µM (inactive).

**Q.** And the GI50 (SK-OV-3)?
**A.** The GI50 was > 100 µM (inactive).

**Q.** What about the GI50 (OVCAR-8) of the same compound?
**A.** The GI50 was > 100 µM (inactive).

**Q.** What about the GI50 (EKVX) of the same compound?
**A.** Its GI50 is > 100 µM (inactive).

**Q.** What about the GI50 (HOP-92) of the same compound?
**A.** Its GI50 is > 100 µM (inactive).

**Q.** And the GI50 (MDA-N)?
**A.** Its GI50 is > 100 µM (inactive).

**Q.** And the GI50 (SW-620)?
**A.** The GI50 was > 100 µM (inactive).

**Q.** And the GI50 (RPMI-8226)?
**A.** The GI50 was > 100 µM (inactive).

**Q.** What about the GI50 (A498) of the same compound?
**A.** Its GI50 is > 100 µM (inactive).

**Q.** And the GI50 (MDA-MB-435)?
**A.** Its GI50 is > 100 µM (inactive).

**Q.** And the GI50 (OVCAR-5)?
**A.** The GI50 was > 100 µM (inactive).

**Q.** And the GI50 (SNB-19)?
**A.** The GI50 was > 100 µM (inactive).

**Q.** What about the GI50 (HOP-62) of the same compound?
**A.** Its GI50 is > 100 µM (inactive).

**Q.** And the GI50 (HCT-116)?
**A.** Its GI50 is > 100 µM (inactive).

**Q.** And the GI50 (DU-145)?
**A.** Its GI50 is > 100 µM (inactive).

**Q.** What about the GI50 (SNB-75) of the same compound?
**A.** Its GI50 is > 100 µM (inactive).

**Q.** What about the GI50 (KM12) of the same compound?
**A.** The GI50 was > 100 µM (inactive).
